Experimental data from patent publication US11572365B2, “Crystal form of upadacitinib, preparation method therefor, and use thereof” (CRYSTAL PHARMACEUTICAL (SUZHOU) CO., LTD., priority 2021, dated 2023).
In brackets after ≈: the same amount, converted by molar mass. One block for each molecule: values may come before it.

Legend:
Format in all cases: physicochemical
[1] = Crystalline form before and after formulation process (XRPD)
[2] = Kinetic solubility in FeSSIF, FaSSIF and pH 7.4 PBS (HPLC); details: for solubility at 24 h / solubility at 48 h: thermodynamic from solid
Method: The method parameters of kinetic solubility test in the present disclosure are as follows:
(§1) Approximately 15-30 mg of Form CSVI in the present disclosure was suspended into 1.8 mL of FeSSIF, 1.8 mL of FaSSIF and 1.8 mL of pH=7.4 PBS. After equilibration for 24 hours and 48 hours, the concentration of upadacitinib in saturated solutions were tested by HPLC and the results are listed in Table 2.
as §1, with “CSVII” for “CSVI”, “was” for “were”, “5.” for “2.”

[3] = DVS humidity cycle 0% RH-95% RH-0% RH, crystalline form by XRPD; details: XRPD before and after
Method: Dynamic Vapor Sorption (DVS) is measured via an SMS (Surface Measurement Systems Ltd.) intrinsic DVS instrument. Its control software is DVS-Intrinsic control software. Typical parameters for DVS test are as follows: • Temperature: 25° C. • Gas and flow rate: N2, 200 mL/min • RH range: 0% RH to 95% RH
It can be seen that Form CSVI has good stability under accelerated conditions. Form CSVI is stable for at least 1 month under 60° C./75% RH (sealed) condition. It can be seen that Form CSVI has good stability under more stressed condition as well. Approximately 10 mg of Form CSVI in the present disclosure underwent a humidity cycle of 0% RH-95% RH-0% RH with a dynamic vapor sorption (DVS) analyzer.
Approximately 10 mg of Form CSVII in the present disclosure underwent a humidity cycle of 0% RH-95% RH-0% RH with a dynamic vapor sorption (DVS) analyzer.

[4] = Stability of drug substance on storage (XRPD crystalline form, HPLC purity); details: for Chemical purity during storage: storage conditions of the stability test
Method: The method parameters for related substances test in the present disclosure are as follows:
(§2) Approximately 5 mg of Form CSVI in the present disclosure was stored under 40° C./75% RH and 60° C./75% RH conditions. The purity and crystalline form were tested before and after storage by HPLC and XRPD. The results are listed in Table 3 and the XRPD overlay is substantially as depicted in FIG. 4.
as §2, with “CSVII” for “CSVI”, “under 25° C./60% RH,” for “under”, “6” for “3”, “10.” for “4.”

[5] = 40° C./75% RH, Sealed, 6 months
[6] = 25° C./60% RH, Sealed, 6 months

Physical stability after formulation procedure [1]: physically stable
solubility at 24 h ([2]; FaSSIF, 37 °C, pH 6.5, fassif, FaSSIF (pH 6.5, 37° C.), 24 hours): 1870 µg/mL (≈ 4.92 mM)
solubility at 48 h ([2]; FaSSIF, 37 °C, pH 6.5, fassif, FaSSIF (pH 6.5, 37° C.), 48 hours): 1710 µg/mL (≈ 4.5 mM)
solubility at 24 h ([2]; FeSSIF, 37 °C, pH 5, fessif, FeSSIF (pH 5.0, 37° C.), 24 hours): 2200 µg/mL (≈ 5.78 mM)
solubility at 48 h ([2]; FeSSIF, 37 °C, pH 5, fessif, FeSSIF (pH 5.0, 37° C.), 48 hours): 2220 µg/mL (≈ 5.84 mM)
solubility at 24 h ([2]; PBS, 25 °C, pH 7.4, aqueous buffer, pH 7.4, 25° C., 24 hours): 880 µg/mL (≈ 2.31 mM)
solubility at 48 h ([2]; PBS, 25 °C, pH 7.4, aqueous buffer, pH 7.4, 25° C., 48 hours): 850 µg/mL (≈ 2.23 mM)
Form change after DVS test [3]: no form change is observed
Time for which the form is stable (crystalline state unchanged) ([4]; 40° C./75% RH (open)): at least 6 months
Time for which the form is stable (crystalline state unchanged) ([4]; 40° C./75% RH (sealed)): at least 6 months
Purity ([4]; 40° C./75% RH, Open, 6 months): 99.89%
Solid form ([4]; 40° C./75% RH, Open, 6 months): Form CSVI
Purity [4, 5]: 99.92%
Solid form [4, 5]: Form CSVI
Time for which the form is stable (crystalline state unchanged) ([4]; 60° C./75% RH (sealed)): at least 1 month
Purity ([4]; 60° C./75% RH, Sealed, 1 month): 99.91%
Solid form ([4]; 60° C./75% RH, Sealed, 1 month): Form CSVI
Purity ([4]; Initial): 99.89%
Solid form ([4]; Initial): Form CSVI
Chemical purity during storage [4]: above 99.8%
SMILES: CC[C@@H]1CN(C(=O)NCC(F)(F)F)C[C@@H]1c1cnc2cnc3[nH]ccc3n12 [Form CSVI, (3S,4R)-3-ethyl-4-(3H-imidazo[1,2-a]pyrrolo[2,3-e]pyrazin-8-yl)-N-(2,2,2-trifluoroethyl) pyrrolidine-1-carboxamide]

Physical stability after formulation procedure [1]: physically stable
Solubility ([2]; FaSSIF (pH 6.5, 37° C.), 24 hours): 2020 µg/mL (≈ 5.31 mM)
Solubility ([2]; FaSSIF (pH 6.5, 37° C.), 48 hours): 2170 µg/mL (≈ 5.7 mM)
Solubility ([2]; FeSSIF (pH 5.0, 37° C.), 24 hours): 2280 µg/mL (≈ 5.99 mM)
Solubility ([2]; FeSSIF (pH 5.0, 37° C.), 48 hours): 2470 µg/mL (≈ 6.49 mM)
Solubility ([2]; pH 7.4, 25° C., 24 hours): 920 µg/mL (≈ 2.42 mM)
Solubility ([2]; pH 7.4, 25° C., 48 hours): 850 µg/mL (≈ 2.23 mM)
Form change after DVS test [3]: no form change is observed
Purity ([4]; 25° C./60% RH, Open, 6 months): 99.91%
Solid form ([4]; 25° C./60% RH, Open, 6 months): Form CSVII
Purity [4, 6]: 99.92%
Solid form [4, 6]: Form CSVII
Purity [4, 5]: 99.92%
Solid form [4, 5]: Form CSVII
Purity ([4]; 60° C./75% RH, Sealed, 1 month): 99.92%
Solid form ([4]; 60° C./75% RH, Sealed, 1 month): Form CSVII
Purity ([4]; Initial): 99.92%
Solid form ([4]; Initial): Form CSVII
Chemical purity during storage [4]: above 99.9%
SMILES: CC[C@@H]1CN(C(=O)NCC(F)(F)F)C[C@@H]1c1cnc2cnc3[nH]ccc3n12 [Form CSVII, (3S,4R)-3-ethyl-4-(3H-imidazo[1,2-a]pyrrolo[2,3-e]pyrazin-8-yl)-N-(2,2,2-trifluoroethyl) pyrrolidine-1-carboxamide]
